In ChEMBL document CHEMBL1201862, “PubChem BioAssay data set” (2004):
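A five-concentration, 48-hour dose response in 96-well plates underlies each endpoint, interpolated linearly between surrounding concentrations. Here, GI50 denotes the concentration required for 50% inhibition of growth.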 Activity calls are given as the source filed them. No stated cut-off is given here; in the data, active = GI50 up to about 1.1 µM and inactive = higher.

Key:
Assay in all cases: NCI anticancer screen, dose series, 48 h
DLD-1 = test system: DLD-1
DMS-273 = test system: DMS-273
LXFL 529 = test system: LXFL 529
M19-MEL = test system: M19-MEL
XF498 = test system: XF498
BT-549 = test system: BT-549
MDA-N = test system: MDA-N
DMS-114 = test system: DMS-114

SMILES | GI50 (BT-549) | GI50 (MDA-N) | other results
OCC1C(/C=C/c2ccoc2)ON2CCCC12 (stereo not drawn) | – | – | GI50 (DLD-1): > 100 µM (inactive); GI50 (DMS-273): > 100 µM (inactive); GI50 (LXFL 529): > 100 µM (inactive); GI50 (M19-MEL): > 100 µM (inactive); GI50 (XF498): > 100 µM (inactive)
C1=N/CCNCCNCC/N=C/c2ccccc2OCc2cccc(n2)COc2ccccc2/1 | 38.5 µM (inactive) | 15.2 µM (inactive) | –
CC(C)(CO)CNc1nc(N)nc(Cl)c1C=O | 41.1 µM (inactive) | 25.5 µM (inactive) | –
[O-]c1c[n+](CCCC[n+]2cc([O-])on2)no1 | > 100 µM (inactive) | > 100 µM (inactive) | –
O=C1c2cccc3cccc(c23)C2NCCCN12 (stereo not drawn) | > 100 µM (inactive) | > 100 µM (inactive) | –
COC(=O)/C=C\C(C#N)(C#N)/N=C/c1ccc(C)s1 | 2.83 µM (inactive) | 2.49 µM (inactive) | –
Cc1cc2c(c(O)c1-c1c(C)cc(O)c3c1C(=O)C=CC3=O)C(=O)C=CC2=O | 2.61 µM (inactive) | 1.46 µM (inactive) | –
COc1ccc(Cn2c(=O)c(OC)c(C)c3cc4ccccc4cc32)cc1 | 34.3 µM (inactive) | 34.3 µM (inactive) | –
CC(C)(Oc1ccc(/C=C/C(=O)c2ccccc2)cc1)C(=O)Nc1c(Cl)cccc1Cl | – | – | GI50 (DLD-1): > 10 µM (inactive); GI50 (DMS-114): 8.47 µM (inactive); GI50 (DMS-273): 8.07 µM (inactive); GI50 (LXFL 529): 6.56 µM (inactive); GI50 (M19-MEL): > 10 µM (inactive); GI50 (XF498): > 10 µM (inactive)
Cc1nc(Nc2ccc(Cl)cc2)sc1C(=O)NNC(=O)C(=O)NN | – | – | GI50 (DLD-1): 18.5 µM (inactive); GI50 (DMS-114): 20.4 µM (inactive); GI50 (DMS-273): 19.1 µM (inactive); GI50 (LXFL 529): 18.3 µM (inactive); GI50 (M19-MEL): 19.2 µM (inactive)
Cc1nc2ccc(S(=O)(=O)Nc3ccccn3)cc2c(=O)n1NS(=O)(=O)c1ccccn1 | > 100 µM (inactive) | > 100 µM (inactive) | –
Cc1c(C(=O)/C=C/c2ccc(N(C)C)cc2)c(=O)n(-c2ccccc2)n1C | – | – | GI50 (DMS-114): > 100 µM (inactive); GI50 (DMS-273): > 100 µM (inactive); GI50 (LXFL 529): > 100 µM (inactive); GI50 (M19-MEL): > 100 µM (inactive); GI50 (XF498): > 100 µM (inactive)
CC(C#N)(NO)C(C)(C#N)NO (stereo not drawn) | > 100 µM (inactive) | > 100 µM (inactive) | –
Cc1sc(C)c2c1C(=O)CC2N (stereo not drawn) | 20 µM (inactive) | 21.1 µM (inactive) | –
COC(=O)c1ccccc1CC1Cc2ccc3c(c2C1)CCC3 (stereo not drawn) | 60.8 µM (inactive) | 34 µM (inactive) | –
Cc1ccc(S(=O)(=O)Nn2c(C)cc3ccc(S(=O)(=O)Nc4ccccc4[N+](=O)[O-])cc3c2=O)cc1 | > 100 µM (inactive) | 29.6 µM (inactive) | –

SMILES | GI50 (BT-549) | GI50 (MDA-N) | other results
Cc1cc(C)n(C(=O)CSc2nc3ccc(I)cc3c(=O)n2Cc2ccccc2)n1 | – | > 100 µM (inactive) | –
COc1cc(/C=C/C(=O)c2cccc3ccccc23)cc(OC)c1OC | – | – | GI50 (DLD-1): 3.85 µM (inactive); GI50 (DMS-273): 3.59 µM (inactive); GI50 (LXFL 529): 2.73 µM (inactive); GI50 (M19-MEL): 7.33 µM (inactive); GI50 (XF498): 7.74 µM (inactive)
CCOP(=O)(OCC)C(Nc1cccc(F)c1)c1ccc(N(C)C)cc1 (stereo not drawn) | > 100 µM (inactive) | > 100 µM (inactive) | –
CCCC(CC)c1cc(O)c(O)cc1C(CC)CCC (stereo not drawn) | > 10 µM (inactive) | > 10 µM (inactive) | –
OC[C@]1(n2nc3ccccc3n2)OC[C@@H]1c1ccccc1 | 28.8 µM (inactive) | 53.7 µM (inactive) | –
CCNC(=O)Nc1ccccn1 | > 100 µM (inactive) | > 100 µM (inactive) | –
Nc1cc(C(=O)NC2C3CC4CC(C3)CC2C4)nc(S)n1 (stereo not drawn) | – | – | GI50 (DLD-1): > 100 µM (inactive); GI50 (LXFL 529): > 100 µM (inactive); GI50 (M19-MEL): > 100 µM (inactive); GI50 (XF498): > 100 µM (inactive)
O=S(=O)(O)c1ccc(/N=N/c2ccc(/N=N/c3c(O)ccc4cc(S(=O)(=O)O)ccc34)cc2)cc1 | > 100 µM (inactive) | – | –
COC1=C2CC(C)CC(OC)[C@@H](OC(=O)CCN)[C@H](C)/C=C(\C)C(OC(N)=O)C(OC)/C=C\C=C(/C)C(=O)NC(=CC1=O)C2=O (stereo partly drawn) | 4.91 µM (inactive) | 0.78 µM (active) | –
CCC1CN2CCc3c([nH]c4ccccc34)[C@@](C(=O)OC)(c3cc4c(cc3OC)N(C)C3C(O)(C(=O)OC)C(C(=O)OC)C5(CC)C=CCN6CCC43C65)C[C@@H](C2)[C@@H]1C(C)(C)C (stereo partly drawn) | 1.61 µM (inactive) | 0.187 µM (active) | –
C[n+]1ccc(/C2=C3\C=CC(=N3)/C(c3cc[n+](C)cc3)=c3/cc/c([nH]3)=C(\c3cc[n+](C)cc3)C3=N/C(=C(/c4cc[n+](C)cc4)C4C=CC2N4)C=C3)cc1 | > 100 µM (inactive) | > 100 µM (inactive) | –
COC(=O)c1cc(C(=CCC[C@H]2CC[C@@]3(C)C(CCC4C3CC[C@@]3(C)C4CC[C@@H]3C(C)CCCC(C)C)C2)c2cc(Cl)c(O)c(C(=O)OC)c2)cc(Cl)c1O (stereo partly drawn) | > 10 µM (inactive) | > 10 µM (inactive) | –
Oc1ccc(-c2nc3ccccc3s2)cc1 | 50.2 µM (inactive) | 32.9 µM (inactive) | –
COc1ccc([C@@]23Oc4cc(OC)cc(OC)c4[C@]2(O)[C@H](O)[C@H](C(N)=O)[C@H]3c2ccccc2)cc1 [DIDESMETHYLROCAGLAMIDE] | < 0.0112 µM (active) | < 0.01 µM (active) | –
NC1=NC(=O)/C(=C2\CCNC(=O)c3[nH]c(Br)cc32)N1 [HYMENIALDISINE] | 10.4 µM (inactive) | 1.9 µM (inactive) | GI50 (DLD-1): 37.6 µM (inactive); GI50 (DMS-114): 13 µM (inactive); GI50 (DMS-273): > 85.5 µM (inactive); GI50 (M19-MEL): 48.5 µM (inactive); GI50 (XF498): > 100 µM (inactive)
